Values quoted from earlier work as cited in patent US6814987B2, “Compositions and methods of use for extracts of magnoliaceae plants” (NPI, LLC., priority 2000, dated 2004).
Where two headings read alike, the source gives them in different places.

For C=CCc1ccc(O)c(-c2ccc(O)c(CC=C)c2)c1 [honokiol], the “duration of muscle relaxing effect” value (250 mg/kg) is listed as 3 h and the observed effect (500 mg/kg) is listed as “loss of righting reflex”.

For C=CCc1ccc(O)c(-c2cc(CC=C)ccc2O)c1 [magnolol], the observed effects (mice; 63 mg/kg intraperitoneally) is listed as “hypomotility, ptosis, and sedation”, the “duration of effects after injection” value (mice; 125 mg/kg) is listed as 2 h and the observed effects (mice; 125 mg/kg) is listed as “sedation, ataxia, and prominent muscle relaxation”. For the same compound, the “duration of muscle relaxation” value (mice; 250 mg/kg) was “over 3 hr”, the time to ataxia (mice; 250 mg/kg) was ≤ 10 min and the “time to loss of righting reflex” value (mice; 250 mg/kg) was 40 min.
